Data from patent EP4595961A1, “SELEXIPAG FOR USE IN THE TREATMENT AND/OR PREVENTION OF ATHEROSCLEROSIS” (SORBONNE UNIVERSITE, priority 2024, dated 2025).
Where two headings read alike, the source gives them in different places.

Key:
ABCG1 = ABCG1 gene expression by real-time RT-PCR in aortic smooth muscle cells; format: cell-based, human; conditions: normalized with HPRT, n=1 or 2
Procedure: (§1) The cells, grown to confluence according to the supplier's instructions (Lonza), were serum-depleted, pre-treated for 1h with increasing concentrations of ACT-333679 (i.e. MRE-269), and incubated in the presence of 10ng/mL PDGF-BB for 24h for Figures 4 and 5, and 6h for Figure 6. The treated cells were then incubated during 4 hours with 10µg/mL of fluorescently labelled DiI-oxLDL (Figures 4 and 5) and their ability to internalise the oxLDL was analysed by fluorescence microscopy (Figure 4) and FACS (Figure 5). FACS allows precise quantification of the number of fluorescent cells (i.e. those that have incorporated fluorescent oxLDL) and the intensity of the incorporated fluorescence per cell (i.e. the quantity of incorporated oxLDL/cell). Nuclei were stained with 4'-6'diamidino-2-phenylindol (DAPI) for analysis by fluorescence microscopy (Figure 4) or cells were directly analysed by flow cytometry (Figure 5). A detailed description of the protocol and apparatus used is given in the art.
(§2) Regarding Figure 4, representative images of the analysis of 5 fields examined in two experiments (n=2). […]
(§3) The expression of genes encoding transporters involved in cholesterol efflux (ABCA1: ATP-binding cassette A1 and ABCG1: ATP-binding cassette subfamily G member 1) was measured by real-time RT-PCR. […]

[1] = tested on: human aortic smooth muscle cells; assay: Internalisation of DiI-oxLDL by aortic smooth muscle cells (fluorescence microscopy and FACS); format: cell-based; conditions: 1h pre-treatment, DiI-oxLDL 10 µg/mL 4 hours, read-out: concentration from which incorporation of oxLDL is inhibited
ABCA1 = ABCA1 gene expression by real-time RT-PCR in aortic smooth muscle cells; format: cell-based, human; conditions: normalized with HPRT, n=1 or 2
Procedure: as §1, §2, §3

[2] = tested on: vascular smooth muscle cells-derived foam cells; assay: Radioisotopic cholesterol efflux assay ([3H]-cholesterol-loaded VSMCs); format: cell-based, human
Source text: Primary cultures of aortic smooth muscle cells (AoSMC) obtained from a human diabetic and obese donor ([…]) were purchased from Lonza (D-AoSMC CloneticsTM). Cells were cultivated on 12-well plates at 50 000 cells/well in a growth medium composed of the Smooth Muscle Basal Medium (SmBM, Lonza) supplemented with 0.2% hEGF, 0.1% insulin, 0.2% hFGF-B, 5% Fetal Bovine Serum (FBS) and 0.1% gentamicin/amphotericin-B (SingleQuots, Lonza, concentrations not specified) according to Lonza's instructions. The foam phenotype was induced when cells reached a subconfluent density. During all the experiments, cells were maintained within an atmosphere enriched with 5% CO2 at 37°C and were used at passages ranging from 6 to 9. […]
Cholesterol efflux assay was performed as previously described by using [3H]-cholesterol-loaded VSMCs. […] Fractional cholesterol efflux, expressed as a percentage, was calculated as the amount of the radioactivity recovered in the cleared medium divided by the total radioactivity (radioactivity in the medium + radioactivity in the cells). Radioactivity in the cells was obtained after the lipid extraction in a mixture of hexane isopropanol (3:2 v/v) and was determined by liquid scintillation counting on a Wallac Trilux 1450 Microbeta scintillation counter (PerkinElmer, MA, USA). […]

[3] = pre-treated 1h, then PDGF-BB 10 ng/mL 6h

Row | Structure (SMILES) | Expression of PDGF-BB-inhibited ABCG1 gene (ABCG1; [3]) | minimal effective concentration ([1]; Homo sapiens, basal incorporation) [µM] | minimal effective concentration ([1]; incorporation stimulated by PDGF-BB 10 ng/mL 24h) [µM] | Expression of PDGF-BB-inhibited ABCA1 gene (ABCA1; [3]) | Basal cholesterol efflux ([2]; MRE-269 100 nM alone, no rHDL, basal efflux about 2.6 %) | cholesterol efflux ([2]; MRE-269 100 nM together with rHDL 20 µg/mL, 24h, n=6) [%] | basal expression of gene encoding ABCG1 (ABCG1; basal, no PDGF-BB) | basal expression of gene encoding ABCA1 (ABCA1; basal, no PDGF-BB)
1 | CC(C)N(CCCCOCC(=O)O)c1cnc(-c2ccccc2)c(-c2ccccc2)n1 [MRE-269] | partially restored | ≥ 0.005 | ≥ 0.005 | partially restored | not modified | 20.21 |  | 
2 | CC(C)N(CCCCOCC(=O)NS(C)(=O)=O)c1cnc(-c2ccccc2)c(-c2ccccc2)n1 [Selexipag, 2-{4-[(5,6-diphenylpyrazin-2-yl)(isopropyl)amino]butoxy}-N-(methylsulfonyl)acetamide] |  |  |  |  |  |  | increased | increased
